Measurements from patent US11478451B1, “Macrocyclic chlorine substituted indole derivatives” (Bayer Aktiengesellschaft, priority 2017, dated 2022).
Structures can show the parent of a compound that is named as a salt. Where two headings read alike, the source gives them in different places.

Assays:
AMO-1 cells = test: Antiproliferation assay (CellTiter-Glo, 72 h), AMO-1; format: cell-based; settings: IC50, median, AMO-1, 72 h, read-out: Antiproli AMO-1 [M] median
In short: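 CellTiter-Glo luminescence readout; 72 h compound exposure, 37 °C, humidified; rim wells excluded; time-zero reference plate plated in parallel and read identically.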

HMC-1-8 cells = test: Antiproliferation assay (CellTiter-Glo, 72 h), HMC-1-8; format: cell-based; settings: IC50, median, HMC-1-8, 72 h, read-out: Antiproli HMC-1-8 [M] median
Protocol: Assessment of the Anti-Proliferative Effect of Compounds in Different Cell Lines
The impact of compounds on the proliferation of different cell lines was assessed using the CellTiter-Glo® Luminescent Cell Viability reagent from Promega (G7573).
In parallel, cells were plated in a reference (day 0) plate for time zero determination.
Rim wells were excluded. The cells were incubated for 72 h hours in a humidified incubator at 37° C. The day 0 plate was measured by adding 30 μL/well of CTG solution (CellTiter-Glo® Luminescent Cell Viability reagent, Promega G7573) to time zero wells in the reference plate followed by a 10 minutes incubation and luminescence reading at 0.1 ms. using the PHERAstar FS microplate reader (BMG Labtech).
After 72 h incubation, the treated plates were measured in the same way as the day 0 plate mentioned above.

SUDHL10 cells [1] = test: Induction of caspase-3/7 activity (Caspase-Glo 3/7), SUDHL10; format: cell-based; settings: EC50, median, SUDHL10, 3 h treatment
In short: (§1)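 Caspase-Glo 3/7 luminescence after 3 h compound treatment, 37 °C, humidified; medium-only background subtracted; rim wells excluded.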

SUDHL5 cells [2] = test: Induction of cytotoxicity (CellTiter-Glo, 5 h), SUDHL5; settings: SUDHL5, 5 h
SUDHL10 cells [3] = test: Induction of cytotoxicity (CellTiter-Glo, 5 h), SUDHL10; settings: SUDHL10, 5 h
SUDHL5 cells [4] = test: Induction of caspase-3/7 activity (Caspase-Glo 3/7), SUDHL5; format: cell-based; settings: EC50, median, SUDHL5, 3 h treatment
In short: as §1

[5] = Homo sapiens, SU-DHL-5, 5 h, read-out: Cytotox SUDHL5 [M] (median), IC50, median
[6] = Homo sapiens, SU-DHL10, 5 h, read-out: Cytotox SUDHL10 [M] (median), IC50, median
[7] = read-out: Cytotox SUDHL5 [M] (median), IC50, median

| EC50 (SUDHL10 cells [1]; Homo sapiens, SU-DHL10, 3 h) [nM] | SMILES | IC50 (AMO-1 cells; Homo sapiens, AMO1, 72 h) [M] | IC50 (HMC-1-8 cells; 72 h) [M] | IC50 (SUDHL10 cells [3]; [6]) [M] | further results |
| --- | --- | --- | --- | --- | --- |
| 220 | Cc1c2c(nn1C)COCCC(F)(F)Cn1c(C(=O)O)c(CCCOc3cccc4cc(F)ccc34)c3ccc(Cl)c-2c31 (racemic) [Example 93, (rac)-4-Chloro-11,11-difluoro-7-{3-[(6-fluoronaphthalen-1-yl)oxy]propyl}-2,3-dimethyl-2,10,11,12,13,15-hexahydropyrazolo[4′,3′:9,10][1,6]oxazacycloundecino[8,7,6-hi]indole-8-carboxylic acid] | 1.2e-06 | 4.9e-06 | 4.3e-07 | IC50 (SUDHL5 cells [2]; [5]): 3.5e-07 M |
| 130 | CCc1c2c(nn1C)CN(CCOC)CCCCn1c(C(=O)O)c(CCCOc3cccc4cc(F)ccc34)c3ccc(Cl)c-2c31 (racemic) [Example 131, (rac)-4-chloro-3-ethyl-7-{3-[(6-fluoronaphthalen-1-yl)oxy]propyl}-14-(2-methoxyethyl)-2-methyl-10,11,12,13,14,15-hexahydro-2H-pyrazolo[3′,4′:8,9][1,6]diazacycloundecino[10,11,1-hi]indole-8-carboxylic acid] | – | 1.3e-06 | 1.5e-07 | – |
| 390 | CCc1c2c(nn1C)COCCCCn1c(C(=O)O)c(CCCOc3cccc4ccccc34)c3ccc(Cl)c-2c31 (single isomer, unassigned; enantiomer 1) [Example 20, 4-chloro-3-ethyl-2-methyl-7-[3-(naphthalen-1-yloxy)propyl]-2,10,11,12,13,15-hexahydropyrazolo[4′,3′:9,10][1,6]oxazacycloundecino[8,7,6-hi]indole-8-carboxylic acid (Enantiomer 1)] | 8.7e-07 | 2.5e-06 | 6.9e-07 | – |
| 930 | CCc1nn(C)c2c1-c1c(Cl)ccc3c(CCCOc4cccc5cc(F)ccc45)c(C(=O)O)n(c13)CCCCOC2 (single isomer, unassigned; enantiomer 1) [Example 34, (+)-4-chloro-3-ethyl-7-{3-[(6-fluoronaphthalen-1-yl)oxy]propyl}-1-methyl-1,10,11,12,13,15-hexahydropyrazolo[4′,3′:9,10][1,6]oxazacycloundecino[8,7,6-hi]indole-8-carboxylic acid (Enantiomer 1)] | 1.4e-06 | 2e-06 | – | – |

Further lines, the compound ahead of its results:

| SMILES | EC50 (SUDHL10 cells [1]; Homo sapiens, SU-DHL10, 3 h) [nM] | IC50 (AMO-1 cells; Homo sapiens, AMO1, 72 h) [M] | IC50 (HMC-1-8 cells; 72 h) [M] | IC50 (SUDHL10 cells [3]; [6]) [M] | further results |
| --- | --- | --- | --- | --- | --- |
| Cc1c2c(nn1C)CN(C)CCCCn1c(C(=O)O)c(CCCOc3cccc4ccccc34)c3ccc(Cl)c-2c31 (racemic) [Example 11, (rac)-4-chloro-2,3,14-trimethyl-7-[3-(naphthalen-1-yloxy)propyl]-10,11,12,13,14,15-hexahydro-2H-pyrazolo[3′,4′:8,9][1,6]diazacycloundecino[10,11,1-hi]indole-8-carboxylic acid] | – | 7.3e-07 | 4.2e-06 | – | – |
| CCc1c2c(nn1C)CN(CCCO)CCCCn1c(C(=O)O)c(CCCOc3cccc4cc(F)ccc34)c3ccc(Cl)c-2c31 (racemic) [Example 139, (rac)-4-chloro-3-ethyl-7-{3-[(6-fluoronaphthalen-1-yl)oxy]propyl}-14-(3-hydroxypropyl)-2-methyl-10,11,12,13,14,15-hexahydro-2H-pyrazolo[3′,4′:8,9][1,6]diazacycloundecino[10,11,1-hi]indole-8-carboxylic acid] | – | 4.4e-07 | 5.7e-06 | – | – |
| Cc1c2c(nn1C)COCC1CCC1Cn1c(C(=O)O)c(CCCOc3cccc4ccccc34)c3ccc(Cl)c-2c31 (single isomer, unassigned) [Example 81, 3-chloro-4,5-dimethyl-15-{3-[(naphthalen-1-yl)oxy]propyl}-5,7,9,9a,10,11,11a,12-octahydrocyclobuta[3,4]pyrazolo[4′,3′:9,10][1,6]oxazacycloundecino[8,7,6-hi]indole-14-carboxylic acid] | – | – | – | – | EC50 (SUDHL5 cells [4]; listed as 081): 7400 nM; EC50 (SUDHL10 cells [1]; listed as 081): 6200 nM; IC50 (HMC-1-8 cells; listed as 081): 5.5e-06 M; IC50 (SUDHL5 cells [2]; read-out: Cytotox SUDHL5 [M] (median), IC50, median, listed as 081): 5.8e-06 M; IC50 (SUDHL10 cells [3]; read-out: Cytotox SUDHL10 [M] (median), IC50, median, listed as 081): 8.4e-06 M |
| Cc1c2c(nn1C)COCCn1c(C(=O)O)c(CCCOc3cccc4ccccc34)c3ccc(Cl)c-2c31 (single isomer, unassigned) [Example 88, 11-chloro-9,10-dimethyl-1-{3-[(naphthalen-1-yl)oxy]propyl}-4,5,7,9-tetrahydropyrazolo[4′,3′:7,8][1,4]oxazonino[6,5,4-hi]indole-2-carboxylic acid] | 4300 | 6.7e-06 | 4.5e-06 | 4e-06 | EC50 (SUDHL5 cells [4]; Homo sapiens, SU-DHL-5, 3 h): 7400 nM |
| Cc1nn(C)c2c1-c1c(Cl)ccc3c(CCCOc4cccc5ccccc45)c(C(=O)O)n(c13)CCCCOC2 (single isomer, unassigned; enantiomer 1) [Example 3, 4-chloro-1,3-dimethyl-7-[3-(naphthalen-1-yloxy)propyl]-1,10,11,12,13,15-hexahydropyrazolo[4′,3′:9,10][1,6]oxazacycloundecino[8,7,6-hi]indole-8-carboxylic acid (Enantiomer 1)] | 1600 | 2.5e-06 | 8.3e-06 | 1.5e-06 | EC50 (SUDHL5 cells [4]; Homo sapiens, SU-DHL-5, 3 h): 710 nM; IC50 (SUDHL5 cells [2]; [5]): 6.5e-07 M |
| CCc1c2c(nn1C)CN(CCC(C)(C)O)CCCCn1c(C(=O)O)c(CCCOc3cccc4cc(F)ccc34)c3ccc(Cl)c-2c31 (single isomer, unassigned; enantiomer 1) [Example 140, 4-chloro-3-ethyl-7-{3-[(6-fluoronaphthalen-1-yl)oxy]propyl}-14-(3-hydroxy-3-methylbutyl)-2-methyl-10,11,12,13,14,15-hexahydro-2H-pyrazolo[3′,4′:8,9][1,6]diazacycloundecino[10,11,1-hi]indole-8-carboxylic acid (Enantiomer 1)] | – | – | 1.4e-06 | – | – |
| CCc1c2c(nn1C)CN(CCN1CCOCC1)CCCCn1c(C(=O)O)c(CCCOc3cccc4cc(F)ccc34)c3ccc(Cl)c-2c31 (single isomer, unassigned; enantiomer 1) [Example 142, 4-chloro-3-ethyl-7-{3-[(6-fluoronaphthalen-1-yl)oxy]propyl}-2-methyl-14-[2-(morpholin-4-yl)ethyl]-10,11,12,13,14,15-hexahydro-2H-pyrazolo[3′,4′:8,9][1,6]diazacycloundecino[10,11,1-hi]indole-8-carboxylic acid (Enantiomer 1)] | – | – | – | – | IC50 (HMC-1-8 cells): 7.5e-07 M |
| CCc1nn(CCN2CCOCC2)c2c1-c1c(Cl)ccc3c(CCCOc4cccc5ccccc45)c(C(=O)O)n(c13)C/C=C\CN(C)C2 (single isomer, unassigned; enantiomer 2) [Example 44, (11Z)-4-chloro-3-ethyl-14-methyl-1-[2-(morpholin-4-yl)ethyl]-7-{3-[(naphthalen-1-yl)oxy]propyl}-10,13,14,15-tetrahydro-1H-pyrazolo[3′,4′:8,9][1,6]diazacycloundecino[10,11,1-hi]indole-8-carboxylic acid-ammonia salt (Enantiomer 2)] | – | – | 2.1e-06 | – | IC50 (AMO-1 cells): 1.1e-06 M; IC50 (SUDHL5 cells [2]; [7]): 7e-07 M |
| Cc1c2c(nn1CCCN1CCN(C)CC1)COCCCCn1c(C(=O)O)c(CCCOc3cccc4ccccc34)c3ccc(Cl)c-2c31 (single isomer, unassigned; enantiomer 2) [Example 50, (−)-4-chloro-3-methyl-2-[3-(4-methylpiperazin-1-yl)propyl]-7-{3-[(naphthalen-1-yl)oxy]propyl}-2,10,11,12,13,15-hexahydropyrazolo[4′,3′:9,10][1,6]oxazacycloundecino[8,7,6-hi]indole-8-carboxylic acid (Enantiomer 2)] | – | – | 3.1e-06 | – | EC50 (SUDHL5 cells [4]): 360 nM; IC50 (AMO-1 cells): 1.3e-06 M; IC50 (SUDHL5 cells [2]; [7]): 4.4e-07 M |
| Cc1c2c(nn1C)COCCC(F)(F)Cn1c(C(=O)O)c(CCCOc3cccc4ccccc34)c3ccc(Cl)c-2c31 [Example 94, 4-chloro-11,11-difluoro-2,3-dimethyl-7-{3-[(naphthalen-1-yl)oxy]propyl}-2,10,11,12,13,15-hexahydropyrazolo[4′,3′:9,10][1,6]oxazacycloundecino[8,7,6-hi]indole-8-carboxylic acid N-ethylethanamine salt] | – | – | 6.3e-06 | – | EC50 (SUDHL5 cells [4]; listed as 094): 1600 nM; EC50 (SUDHL10 cells [1]; listed as 094): 3100 nM; IC50 (SUDHL5 cells [2]; read-out: Cytotox SUDHL5 [M] (median), IC50, median, listed as 094): 2.9e-06 M; IC50 (SUDHL10 cells [3]; read-out: Cytotox SUDHL10 [M] (median), IC50, median, listed as 094): 4.5e-06 M |
